How the values were obtained:
Type in all cases: functional
[1] = system: PC-12; assay: Neuroprotective activity against H2O2-induced toxicity in rat PC12 cells assessed as cell viability at 10 uM incubated for 2 hrs prior to H2O2-challenge measured after 24 hrs by MTT assay relative to control; settings: for viability at 10 µM: Rattus norvegicus, PC-12, read-out: Activity
[2] = system: PC-12; assay: Neuroprotective activity against H2O2-induced toxicity in rat PC12 cells assessed as cell viability at 1 uM incubated for 2 hrs prior to H2O2-challenge measured after 24 hrs by MTT assay relative to control; settings: for viability at 1 µM: Rattus norvegicus, PC-12, read-out: Activity
[3] = system: PC-12; assay: Neuroprotective activity against H2O2-induced toxicity in rat PC12 cells assessed as cell viability at 100 uM incubated for 2 hrs prior to H2O2-challenge measured after 24 hrs by MTT assay relative to control; settings: read-out: Activity

CC1(C)CCC[C@@]2(C)C1=C(O)C(=O)c1c2cc(O)c(O)c1C1=C2C=C(O)C(=O)C=C2[C@@]2(C)CCCC(C)(C)[C@@H]2C1=O (stereo in doubt; 1)
Activity [1]: 102.7% | Activity [2]: 81.3%

CC1(C)CCC[C@@]2(C)C1=C(O)C(=O)c1cc(O)c(O)cc12 [CELAPHANOL A]
viability at 10 µM [1]: 76.9% | viability at 1 µM [2]: 66.4%

CC(=O)N[C@@H](CS)C(=O)O [ACETYLCYSTEINE]
viability at 100 µM [3]: 76.1%

CC1(C)CCC[C@@]2(C)C1=C(O)C(=O)c1c2cc(O)c(O)c1C1=C2C=C(O)C(=O)C=C2[C@@]2(C)CCCC(C)(C)[C@@H]2C1=O (stereo in doubt; 2)
viability at 10 µM [1]: 91.6% | viability at 1 µM [2]: 78.3%

Reference: ChEMBL document CHEMBL2331257, “(M)- and (P)-bicelaphanol A, dimeric trinorditerpenes with promising neuroprotective activity from Celastrus orbiculatus” (2013)
